These results are taken from US20020173523A1, “IMMUNOSUPPRESSION BY PHOTOCHEMOTHERAPY” (priority 1997, published 2002).

Structures are written as SMILES.

One data set deals with BALB/c mice. Nature of the data set: Contact hypersensitivity test: ear swelling after primary and secondary sensitization with picryl chloride, photochemotherapy with 664 nm laser light. The class given is in vivo. To be noted: for Rate of Ear swelling, (%) (Average value ± Standard deviation): laser 664 nm, 10 J/cm^2, 30 min after dosing, untreated group = 100%, 24 h after secondary sensitization. The text has this:
After the intravenous injection, hair of the abdominal side of the mice was shaved off. Thirty minutes after the administration of the test compound, a laser light at a wave length of 664 nm was irradiated onto the exposed skin of the abdominal side of the mice to give a total fluence of 10 J/cm^2 under the conditions of the laser output of 20 mW/cm^2 and the radiated spots of a diameter of 18 mm.
Five days after the primary sensitization, an aqueous solution containing 1% picryl chloride was applied to one ear of each mouse under test, to effect the secondary sensitization. Thus, there were prepared the treated groups of the test mice having a contact hypersensitibity.
(iii) Twenty-four hours after the secondary sensitization, namely six days after the primary sensitization, measurements were made of the thickness of both the ears of each mouse under test by a thickness gauge, and the increases in the thickness of ears were calculated from the difference which was found between the thickness of the one ear having not received the application of picryl chloride and the thickness of the another ear having received the application of picryl chloride for the secondary sensitization. Then, the rates (%) of ear swelling of each mouse of the treated group of mice were evaluated, on such assumption that the average value of the increase in the thickness of the secondarily sensitized ears of the mice of the untreated group was regarded as amounting to 100%, in respect of the mice of the untreated group of mice where the mice were neither administered with the test compound, nor were irradiated with the laser light, but where the mice received only the primary and secondary sensitizations with picryl chloride.

The next data set has as its system CD-1 mice (male). Description: Acute toxicity. The class given is in vivo.
Data set [1] deals with mice of BALB/c (H-2K^d) strain. Nature of the data set: Rejection reactions upon transplantation of skin in mice, photochemotherapy with 664 nm laser light. The following applies: for Percentage (%) of number of the mice with the surviving and remaining skin graft transplanted: 1 mg/kg i.v., laser 664 nm 10 J/cm^2. The class given is in vivo. The method, then: The following experiment was conducted in order to evaluate the therapeutic effect of the photochemotherapeutical method of this invention for treating the rejection reactions raised upon the transplantation of skin in mice.
Thus, as the mice (the recipient) which were to recieve a transplantation of skin, were used mice of BALB/c (H-2K^d) strain (ten mice per group). […] Thirty minutes after the intravenous injection of the test compound, a laser light at the wave length of 664 nm was irradiated onto the abdominal side of each recipient mouse at the laser output of 20 mW/cm^2, at the irradiated spots of a diameter of 18 mm and at a total laser fluence of 10 J/cm^2.
On the other hand, mice of CH/HeN(H-2K^b) strain were used as the mice (the donor) which were to afford the graft of skin for the transplantation to the recipient. The graft of skin to be used for the skin transplantation was one piece of the tail skin of the donor mice which was cut into a piece of about 5 mm×5 mm. This graft of skin was transplanted on the back side of the recipient mouse in such a manner that hair of the back side of the mouse was firstly shaved off, then one region of the skin of the hair-shaved back side of mouse was stripped off and the skin graft was transplanted onto the skin-stripped region of the back side of the recipient mouse. This skin transplantation was performed twenty-four hours after the irradiation of laser light on the recipient mouse.
Then, observation was made as to whether the skin graft so transplanted would fall off or not fall from the recipient mouse within the period of from the time of the skin transplantation to the 15 the days after the intravenous injection of the test compound.
The number of the recipient mice which normally have the transplanted and surviving skin graft remaining on the back side of mouse was counted at each of the given days of observation. The ratio of the number of the graft-remaining mouse at the each day to the number of the mouse at 0 day was expressed as percentage (%), with that the number of the recipient mice at the 0 day being assumed as 100.
Mice of the untreated group were those mice which received the skin transplantation only but neither received the administration of the test compound nor received the irradiation of laser light.

Consider `C=Cc1c(C)c2cc3nc(c(CC(=O)N[C@@H](CC(=O)[O-])C(=O)[O-])c4[nH]c(cc5nc(cc1[nH]2)C(C)=C5CC)c(C)c4C(=O)[O-])[C@@H](CCC(=O)[O-])[C@@H]3C.[Na+].[Na+].[Na+].[Na+]`, for which the “Rate of Ear swelling, (%) (Average value ± Standard deviation)” value is reported as 54.4 ± 7.2% with BALB/c mice (0.001 mg/kg i.v.), 53.2 ± 20.6% with BALB/c mice (0.01 mg/kg i.v.), 33.3 ± 4.4% in the data set with BALB/c mice (0.05 mg/kg i.v.) and 27.8 ± 8.5% in the data set on BALB/c mice (0.1 mg/kg i.v.). Further, the “Suppression of the ear swelling” value in the data set with BALB/c mice (i.v. dosages of 0.001 mg/kg or more, then laser light) is given as at least 45%. The “Ear swelling in contact hypersensitivity testing (result in words)” value in the data set with BALB/c mice (i.v., laser light at 664 nm) is given as “remarkably be suppressed”. This compound yielded an LD50 in the data set on CD-1 mice (male) of 164 mg/kg. For the same compound, in the data set “Photo-toxicity test”, the “Photo-toxicity reactions (result in words)” value was “no reactions such as erythema, edema”. The “Percentage (%) of number of the mice with the surviving and remaining skin graft transplanted” value stood at 100% in data set [1] (0th day (day of skin transplantation)); 100% in data set [1] (6th day); 80% in data set [1] (7th day); 80% in data set [1] (10th day); 80% in data set [1] (11th day); 0% in data set [1] (15th day). Besides, the “Rejection reactions in transplantation of skin (result in words)” value in data set [1] (i.v., laser light at 664 nm) is recorded as “preventively suppressed”. Also, the “Percentage of the total mice tested with falling off of the skin graft” value in data set [1] (within the period of 6th to 11th days, treated group) was 20%.
